Drawing on patent publication US20250025443A1, “COMPOUNDS AND METHODS FOR TREATING CORONA VIRUSES” (CLEAR CREEK BIO, INC., priority 2021, published 2025), this text covers IC50 for 42 compounds.

The target in the first experiment is SARS-CoV-2 Papain-Like Protease (PLpro) (Severe acute respiratory syndrome coronavirus 2 (2019-nCoV) (SARS-CoV-2), UniProt P0DTD1). The experiment in a line: biochemical. The settings on record: PLpro 6.25 nM, substrate 25 μM, 60 min at 25° C.; for more potent compounds PLpro 1 nM, 120 min; read-out: PLpro IC50.
For the compound `Cc1ccc(O)cc1C(=O)N[C@H](C)c1cccc2ccccc12` [Compound 101, (R)-5-Hydroxy-2-methyl-N-(1-(naphthalen-1-yl)ethyl)benzamide], the IC50 lay in the range of 1000 to 5000 nM.

For the compound `COc1ccc(Cl)c(C(=O)N[C@H](C)c2cccc3ccccc23)c1` [Compound 132, (R)-2-Chloro-5-methoxy-N-(1-(naphthalen-1-yl)ethyl)benzamide], the IC50 was above 5000 nM.

The same experiment, now with this note: PLpro enzymatic fluorescence assay; class symbols; read-out: PLpro IC50.
For `Cc1ccc(O[C@@H]2CCCC[C@H]2N)cc1CNC1(c2cccc3ccccc23)CC1` (single isomer, unassigned) [Compound 429], the IC50 lay within 100 to 1000 nM.

Turning to `Cc1ccc(OC[C@@H]2CCN2C)cc1C(=O)NC1(c2cc(-c3ccco3)cc3ncccc23)CC1` (stereo in doubt) [Compound 604, N-(1-(7-(Furan-2-yl)quinolin-5-yl)cyclopropyl)-2-methyl-5-((1-methylazetidin-2-yl)methoxy)benzamide], the IC50 was below 100 nM. `Cc1ccc([N+](=O)[O-])cc1C(=O)N[C@H](C)c1cccc2ccccc12` [Compound 104, (R)-2-Methyl-N-(1-(naphthalen-1-yl)ethyl)-5-nitrobenzamide]: the IC50 was above 5000 nM. On the same count and under the same terms, then `Cc1ccc([N+](=O)[O-])cc1CNC(c1cccc2ccccc12)C1COC1` (stereo not drawn) [Compound 110], with above 5000 nM; and `COCCC(NCc1cc([N+](=O)[O-])ccc1C)c1cccc2ccccc12` (stereo not drawn) [Compound 113], with above 5000 nM; and `Cc1ccc([N+](=O)[O-])cc1CNC(c1cccc2ccccc12)C1CCOC1` (stereo not drawn) [Compound 123], with above 5000 nM.

Regarding `CC(c1cccc2ccccc12)N1CCc2ccc([N+](=O)[O-])cc2C1` (stereo not drawn) [Compound 127, 2-(1-(Naphthalen-1-yl)ethyl)-7-nitro-1,2,3,4-tetrahydroisoquinoline], the IC50 is above 5000 nM.

Still in this experiment, the particulars now being: SARS-CoV-2 PLpro enzymatic fluorescence assay; read-out: PLpro IC50.
Turning to “2-Methyl-5-((2-methylazetidin-2-yl)methoxy)-N-(1-(naphthalen-1-yl)cyclopropyl)benzamide [Compound 394]”, the IC50 was below 100 nM. Same read-out and setting: as for “2-Methyl-N-(1-(naphthalen-1-yl)cyclopropyl)-5-(piperidin-2-ylmethoxy)benzamide [Compound 339]”, the figure is below 100 nM.

For “5-(2-Hydroxyethoxy)-2-methyl-N-(1-(naphthalen-1-yl)cyclopropyl)benzamide [Compound 393]”, the IC50 is 100 to 1000 nM. Same read-out and setting: then “5-((1-(2-Hydroxyethyl)azetidin-2-yl)methoxy)-2-methyl-N-(1-(naphthalen-1-yl)cyclopropyl)benzamide [Compound 341]”, with below 100 nM; and `Cc1ccc(O[C@@H]2CC[C@@H]2N)cc1C(=O)NC1(c2cccc3ccccc23)CC1` (racemic) [Compound 406, rac-5-((1S,2R)-2-Aminocyclobutoxy)-2-methyl-N-(1-(naphthalen-1-yl)cyclopropyl)benzamide], with below 100 nM; and `Cc1ccc(OC[C@H]2C[C@@H](O)CN2)cc1C(=O)NC1(c2cccc3ccccc23)CC1` (racemic) [Compound 416, rac-5-(((2R,4R)-4-Hydroxypyrrolidin-2-yl)methoxy)-2-methyl-N-(1-(naphthalen-1-yl)cyclopropyl)benzamide], with below 100 nM. The same measure, in the same setting: as for `C=Cc1cc(C2(NC(=O)c3cc(O[C@@H](C)[C@@H]4CCN4C)ccc3C)CC2)c2cccnc2c1` (relative stereo) [Compound 757, 2-Methyl-5-((S)-1-((S)-1-methylazetidin-2-yl)ethoxy)-N-(1-(7-vinylquinolin-5-yl)cyclopropyl)benzamide], the figure is below 100 nM; as for `Cc1ccc(OC[C@H]2C[C@@H](F)CN2)cc1C(=O)NC1(c2cccc3ccccc23)CC1` (single isomer, unassigned) [Compound 438], below 100 nM; as for `Cc1ccc(OC[C@H]2C[C@H](O)CN2C)cc1C(=O)NC1(c2cccc3ccccc23)CC1` (single isomer, unassigned) [Compound 439], below 100 nM.

`Cc1ccc(OC[C@H]2C[C@@H](O)CN2C)cc1C(=O)NC1(c2cccc3ccccc23)CC1` (single isomer, unassigned) [Compound 440]: the IC50 is below 100 nM. Regarding `Cc1ccc(OC[C@H]2C[C@H](F)CN2C)cc1C(=O)NC1(c2cccc3ccccc23)CC1` (single isomer, unassigned) [Compound 441], the IC50 was below 100 nM. Take `Cc1ccc(OC[C@H]2C[C@H](F)CN2)cc1C(=O)NC1(c2cccc3ccccc23)CC1` (single isomer, unassigned) [Compound 442]: the half-maximal inhibitory concentration (IC50) was below 100 nM. Same read-out and setting: as for `Cc1ccc(NS(C)(=O)=O)cc1C(=O)N[C@H](C)c1cccc2ccccc12` [Compound 100, (R)-2-Methyl-5-(methylsulfonamido)-N-(1-(naphthalen-1-yl)ethyl)benzamide], the figure is above 5000 nM; as for `Cc1cc2nc[nH]c2cc1C(=O)N[C@H](C)c1cccc2ccccc12` [Compound 102, (R)-5-Methyl-N-(1-(naphthalen-1-yl)ethyl)-1H-benzo[d]imidazole-6-carboxamide], 1000 to 5000 nM. Same read-out and setting: then `Cc1ccc([N+](=O)[O-])cc1C(=O)NC(c1cccc2ccccc12)C1CCOCC1` (stereo not drawn) [Compound 105, 2-Methyl-N-(naphthalen-1-yl(tetrahydro-2H-pyran-4-yl)methyl)-5-nitrobenzamide], with above 5000 nM. Still for that read-out and setting: as for `Cc1ccc(N)cc1CN[C@H](C)c1cccc2ccccc12` [Compound 106, (R)-4-Methyl-3-(((1-(naphthalen-1-yl)ethyl)amino)methyl) aniline], the figure is above 5000 nM; as for `Cc1ccc(Nc2nccs2)cc1C(=O)N[C@H](C)c1cccc2ccccc12` [Compound 107, (R)-2-Methyl-N-(1-(naphthalen-1-yl)ethyl)-5-(thiazol-2-ylamino)benzamide], above 5000 nM; as for `COCC(NC(=O)c1cc([N+](=O)[O-])ccc1C)c1cccc2ccccc12` (stereo not drawn) [Compound 108, N-(2-Methoxy-1-(naphthalen-1-yl)ethyl)-2-methyl-5-nitrobenzamide], above 5000 nM. With `Cc1ccc(N)cc1C(=O)NC(c1cccc2ccccc12)C1CCOCC1` (stereo not drawn) [Compound 109, 5-Amino-2-methyl-N-(naphthalen-1-yl(tetrahydro-2H-pyran-4-yl)methyl)benzamide], the IC50 is above 5000 nM. On the same count and under the same terms, as for `Cc1ccc(NC2CNC2)cc1C(=O)N1Cc2ccc(-c3ccc(CN4CCCC4)s3)cc2C1` [Compound 111, (5-(Azetidin-3-ylamino)-2-methylphenyl)(5-(5-(pyrrolidin-1-ylmethyl)thiophen-2-yl)isoindolin-2-yl)methanone], the figure is above 5000 nM; as for `COc1ncccc1Nc1ccc(C)c(C(=O)N[C@H](C)c2cccc3ccccc23)c1` [Compound 115, (R)-5-((2-Methoxypyridin-3-yl)amino)-2-methyl-N-(1-(naphthalen-1-yl)ethyl)benzamide], 1000 to 5000 nM. The same measure, in the same setting: then `Cc1ccc(NC2CNC2)cc1C(=O)NCc1ccc(-c2ccc(CN3CCCC3)s2)cc1` [Compound 116, 5-(Azetidin-3-ylamino)-2-methyl-N-(4-(5-(pyrrolidin-1-ylmethyl)thiophen-2-yl)benzyl)benzamide], with above 5000 nM; and `COCC(NC(=O)c1cc(N)ccc1C)c1cccc2ccccc12` (stereo not drawn) [Compound 118, 5-Amino-N-(2-methoxy-1-(naphthalen-1-yl)ethyl)-2-methylbenzamide], with above 5000 nM; and `Cc1ccc(Nc2ccc[nH]c2=O)cc1C(=O)N[C@H](C)c1cccc2ccccc12` [Compound 119, (R)-2-Methyl-N-(1-(naphthalen-1-yl)ethyl)-5-((2-oxo-1,2-dihydropyridin-3-yl)amino)benzamide], with 1000 to 5000 nM. The same measure, in the same setting: as for `Cc1ccc(NC2CNC2)cc1C(=O)NCc1cccc(-c2ccc(CN3CCCC3)s2)c1` [Compound 120, 5-(Azetidin-3-ylamino)-2-methyl-N-(3-(5-(pyrrolidin-1-ylmethyl)thiophen-2-yl)benzyl)benzamide], the figure is above 5000 nM. Regarding `Cc1ccc(Nc2cn[nH]c2)cc1C(=O)N[C@H](C)c1cccc2ccccc12` [Compound 121, (R)-5-((1H-Pyrazol-4-yl)amino)-2-methyl-N-(1-(naphthalen-1-yl)ethyl)benzamide], the IC50 lay in the range of 1000 to 5000 nM. Still for that read-out and setting: then `C[C@@H](NC(=O)c1ccc2cn[nH]c2c1)c1cccc2ccccc12` [Compound 124, (R)-N-(1-(naphthalen-1-yl)ethyl)-1H-indazole-6-carboxamide], with above 5000 nM; and `C[C@@H](NC(=O)c1ccc2nc[nH]c2c1)c1cccc2ccccc12` [Compound 125, (R)-N-(1-(Naphthalen-1-yl)ethyl)-1H-benzo[d]imidazole-6-carboxamide], with above 5000 nM; and `Cc1cc2nc[nH]c2cc1C(=O)N[C@H](C)c1cccc(-c2ccc(CN3CCCC3)s2)c1` [Compound 126, (R)-5-Methyl-N-(1-(3-(5-(pyrrolidin-1-ylmethyl)thiophen-2-yl)phenyl)ethyl)-1H-benzo[d]imidazole-6-carboxamide], with 1000 to 5000 nM. Same read-out and setting: then `Cc1cc2nc(CN)[nH]c2cc1C(=O)N[C@H](C)c1cccc2ccccc12` [Compound 128, (R)-2-(Aminomethyl)-5-methyl-N-(1-(naphthalen-1-yl)ethyl)-1H-benzo[d]imidazole-6-carboxamide], with 100 to 1000 nM. For the compound `Cc1cc2nc(C3CNC3)[nH]c2cc1C(=O)N[C@H](C)c1cccc2ccccc12` [Compound 131, (R)-2-(Azetidin-3-yl)-5-methyl-N-(1-(naphthalen-1-yl)ethyl)-1H-benzo[d]imidazole-6-carboxamide], the IC50 lay within 1000 to 5000 nM.

`Cc1cc2nc[nH]c2cc1C(=O)N[C@H](C)c1cccc(-c2ccc(CN[C@H]3CC[C@@H](O)C3)s2)c1` [Compound 134, N-((R)-1-(3-(5-((((1S,3R)-3-hydroxycyclopentyl)amino)methyl)thiophen-2-yl)phenyl)ethyl)-5-methyl-1H-benzo[d]imidazole-6-carboxamide]: the IC50 fell in the range of 100 to 1000 nM.

On to `CC(c1cccc2ccccc12)N1CCc2ccc(N)cc2C1` (stereo not drawn) [Compound 135, 2-(1-(Naphthalen-1-yl)ethyl)-1,2,3,4-tetrahydroisoquinolin-7-amine], for which the IC50 is 1000 to 5000 nM.

Usually IC50 stands for the concentration at which inhibition is half-maximal.
